Laboratory results published in patent US9241488B2, “Azole derivative, method for producing azole derivative, and intermediate compound” (KUREHA CORPORATION, priority 2011, dated 2016).

How the values were obtained:
[1] = system: wheat leaf blight-causing microorganisms; assay: Anti-bacterial effect on wheat leaf blight-causing microorganisms (PDA plate, mycelial growth inhibition); format: cell-based, Septoria tritici; settings: 336 h; 1.25 mg/L in PDA plate medium, 25° C., 14 days; read-out: Growth inhibition grade
[2] = system: wheat brown rust-causing microorganisms; assay: Controlling effect on wheat brown rust caused by seed treatment (pot test); format: in vivo, Puccinia recondita; settings: 2 mg compound per 1 g wheat seeds, inoculated 21 days after seeding, evaluated 14 days after inoculation
Method: An efficacy against wheat brown rust was evaluated by performing a pot test. […] The pots were kept in a greenhouse with supplying water underneath. Twenty one days after the seeding, wheat brown rust-causing microorganisms was inoculated, and the pots were stored in a humidity chamber for 2 days. The pots were kept again in a greenhouse with supplying water underneath. Fourteen days after the inoculation, a lesion degree was evaluated, and a protective value was calculated. The protective value was calculated with use of the following formula, and was defined as a wheat brown rust protective value. Protective value=(1−lesion degree in treated plot/lesion degree in untreated plot)×100(%)

[3] = system: wheat; assay: Growth inhibition test for wheat caused by seed treatment (pot test); settings: 2 mg compound per 1 g wheat seeds, 36 days after seeding, larger index = smaller damage
Method: Harmful effect (growth inhibition) to wheat was evaluated by performing a pot test. Compounds (2 mg) of the present invention and a comparative compound (2 mg) were weighed, and those compounds were each dissolved in DMSO (18 μl). Chemical thus prepared were applied to wheat seeds (1 g) in a vial, and eight wheat seeds were seeded in a pot of 80 cm^2. The seeds were cultivated in a greenhouse with supplying water underneath. 36 days after the seeding, damage (growth inhibition) was evaluated.
The damage (growth inhibition) index was calculated on the basis of the following table. As the growth inhibition index becomes larger, the damage of growth inhibition caused by the treatment of the chemicals becomes smaller.

[4] = system: wheat; assay: Harmful effect of necrosis to wheat caused by seed treatment (pot test); format: in vivo; settings: 2 mg compound per 1 g wheat seeds, 31 days after seeding, smaller index = smaller harmful effect
Method: Thirty one days after the seeding, a degree of necrosis (necrosis area ratio) in wheat was evaluated. By using criteria shown in Table 7, necrosis indexes were calculated on the basis of the necrosis area ratio.

[5] = system: wheat-brown-rust-causing microorganisms; assay: Controlling effect on wheat brown rust (spray, pot test); format: in vivo, Puccinia recondita; settings: 1 mg/L sprayed at 1,000 L/ha, wheat NORIN No. 61, 9 to 14 days after inoculation
Procedure, shortened: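 Two-leaf wheat (NORIN No. 61) sprayed with formulation at 1 mg/L, 1,000 L/ha, then spray-inoculated with rust spores and held 48 hours at 25° C, high humidity, then greenhouse.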

[6] = system: Wheat pink snow mold (Microdochium nivale); assay: Anti-bacterial effect on various microorganisms (plate medium), M.n; format: cell-based; settings: Microdochium nivale, read-out: Growth inhibition grade M.n
[7] = system: Rice bacterial seeding blight (Rhizopus oryzae); assay: Anti-bacterial effect on various microorganisms (plate medium), R.o; format: cell-based; settings: Rhizopus arrhizus, read-out: Growth inhibition grade R.o
[8] = system: G.g; assay: Anti-bacterial effect of V′ compounds on various microorganisms (plate medium), G.g; format: cell-based; settings: 5 mg/L
[9] = system: Wheat leaf blight (Septoria tritici); assay: Anti-bacterial effect of V′ compounds on various microorganisms (plate medium), S.t; format: cell-based; settings: 5 mg/L
[10] = system: Wheat Septoria nodorum blotch microorganism (Phaeosphaeria nodorum); assay: Anti-bacterial effect of V′ compounds on various microorganisms (plate medium), P.n; format: cell-based; settings: 5 mg/L
[11] = system: Rice blast (Pyricularia oryzae); format: cell-based; settings: 5 mg/L
[12] = system: Swollen rice seedling (Rhizopus oryzae); assay: Anti-bacterial effect of V′ compounds on various microorganisms (plate medium), R.o; format: cell-based; settings: 5 mg/L
[13] = system: Barley leaf blotch (Rhynchosporium secalis); assay: Anti-bacterial effect of V′ compounds on various microorganisms (plate medium), R. sec; format: cell-based; settings: 5 mg/L
[14] = system: Snow mold of winter wheat (Microdochium nivale); assay: Anti-bacterial effect of V′ compounds on various microorganisms (plate medium), M.n; format: cell-based; settings: 5 mg/L
[15] = system: Barley stripe (Pyrenophora graminea); assay: Anti-bacterial effect of V′ compounds on various microorganisms (plate medium), P.g; format: cell-based; settings: 5 mg/L

Row | SMILES | inhibition at 1.25 µg/mL [1] [%] | wheat brown rust protective value [2] [%] | damage (growth inhibition) index [3] | necrosis index [4] | Protective value [5] | inhibition at 1.25 µg/mL ([6]; 1.25 mg/L) [%] | inhibition at 5 µg/mL ([6]; 5 mg/L) [%] | inhibition at 1.25 µg/mL ([7]; 1.25 mg/L) [%] | inhibition at 5 µg/mL ([7]; 5 mg/L) [%] | Anti-bacterial effect index against various microorganisms G.g [8] | Anti-bacterial effect index against various microorganisms S.t [9] | Anti-bacterial effect index against various microorganisms P.n [10] | Anti-bacterial effect index against various microorganisms P.o [11] | Anti-bacterial effect index against various microorganisms R.o [12] | Anti-bacterial effect index against various microorganisms R. sec [13] | Anti-bacterial effect index against various microorganisms M.n [14] | Anti-bacterial effect index against various microorganisms P.g [15]
1 | CC1(C)CC[C@H](Cc2ccc(Cl)cc2)[C@@]1(O)Cn1cncn1 (racemic) [Compound (1), reference compound] | 60 to 80 | 95 | 2 (Less than 60% but 40% or more) | 1 (1% or more but less than 5%) | 3 (41 to 60) | 20 to 40 | > 80 | 60 to 80 | > 80 | – | – | – | – | – | – | – | –
2 | OC1(Cn2cncn2)C(Cc2ccc(Cl)cc2)CCC12COCOC2 (centres unmarked) [Compound V′-d, 2-(4-chlorobenzyl)-1-(1H-1,2,4-triazole-1-ylmethyl)-7,9-dioxaspiro[4,5]decane-1-ol] | – | 100 | – | – | 4 (61 to 80) | – | – | – | – | 5 (% Mycerial growth inhibition of 80% or higher) | 4 (% Mycerial growth inhibition of less than 80 to 60% or higher) | 5 (% Mycerial growth inhibition of 80% or higher) | 5 (% Mycerial growth inhibition of 80% or higher) | 5 (% Mycerial growth inhibition of 80% or higher) | 5 (% Mycerial growth inhibition of 80% or higher) | 3 (% Mycerial growth inhibition of less than 60 to 40% or higher) | 5 (% Mycerial growth inhibition of 80% or higher)
3 | CC1OCC2(CCC(Cc3ccc(Cl)cc3)C2(O)Cn2cncn2)CO1 (centres unmarked) [Compound V′-e, 2-(4-chlorobenzyl)-8-methyl-1-(1H-1,2,4-triazole-1-ylmethyl)-7,9-dioxaspiro[4,5]decane-1-ol] | > 80 | 100 | – | – | – | – | – | – | – | 5 (% Mycerial growth inhibition of 80% or higher) | 5 (% Mycerial growth inhibition of 80% or higher) | 5 (% Mycerial growth inhibition of 80% or higher) | 5 (% Mycerial growth inhibition of 80% or higher) | 5 (% Mycerial growth inhibition of 80% or higher) | 5 (% Mycerial growth inhibition of 80% or higher) | 5 (% Mycerial growth inhibition of 80% or higher) | 5 (% Mycerial growth inhibition of 80% or higher)
